Measured values taken from patent publication US20180185347A1, “TETRAHYDROCYCLOPENTA[B]INDOLE COMPOUNDS AND PHOSPHODIESTERASE INHIBITORS FOR THE TREATMENT OF THE SIGNS AND SYMPTOMS OF BHP” (Transition Therapeutics (Ireland 2) Limited, priority 2016, published 2018).

Assays:
[1] = biological target: T1, human androgen receptor (hAR) (Homo sapiens, UniProt P10275); experiment: AR binding affinity (Ki)
T1 sequence (P10275 1-920): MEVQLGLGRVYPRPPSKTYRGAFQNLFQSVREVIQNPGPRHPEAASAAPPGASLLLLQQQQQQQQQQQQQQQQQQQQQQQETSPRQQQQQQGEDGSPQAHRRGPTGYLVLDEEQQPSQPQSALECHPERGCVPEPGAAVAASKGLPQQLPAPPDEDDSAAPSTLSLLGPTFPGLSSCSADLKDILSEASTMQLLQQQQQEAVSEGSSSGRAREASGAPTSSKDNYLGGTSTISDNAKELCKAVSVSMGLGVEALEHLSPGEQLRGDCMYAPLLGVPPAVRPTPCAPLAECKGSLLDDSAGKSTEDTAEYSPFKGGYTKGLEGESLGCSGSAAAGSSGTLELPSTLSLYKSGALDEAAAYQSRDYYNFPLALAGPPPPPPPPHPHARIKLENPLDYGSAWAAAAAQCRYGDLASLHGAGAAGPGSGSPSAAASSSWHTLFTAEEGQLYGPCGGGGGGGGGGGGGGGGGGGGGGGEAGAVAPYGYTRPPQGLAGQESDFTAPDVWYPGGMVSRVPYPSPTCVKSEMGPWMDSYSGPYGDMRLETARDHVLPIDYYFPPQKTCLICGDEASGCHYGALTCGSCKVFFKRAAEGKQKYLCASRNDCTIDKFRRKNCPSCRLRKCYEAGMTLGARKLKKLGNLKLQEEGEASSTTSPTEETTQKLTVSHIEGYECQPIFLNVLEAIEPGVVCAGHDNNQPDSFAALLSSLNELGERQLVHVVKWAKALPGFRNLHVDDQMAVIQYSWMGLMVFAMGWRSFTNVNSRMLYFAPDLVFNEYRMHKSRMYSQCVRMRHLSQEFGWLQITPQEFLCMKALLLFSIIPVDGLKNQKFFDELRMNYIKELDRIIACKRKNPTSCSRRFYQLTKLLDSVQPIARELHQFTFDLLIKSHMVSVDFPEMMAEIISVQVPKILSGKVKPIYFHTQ

Rat bioavailability = format: in vivo
Dog bioavailability = format: in vivo
LnCAP cells = experiment: LnCAP gene expression; format: cell-based; conditions: Homo sapiens, read-out: LnCAP Gene Expression EC50 (nM) AR
rats = experiment: Rat toxicology program: prostate weight and atrophy; format: in vivo; parameters: key: “”: no effect observed
[2] = QT / ECG assessment in clinical studies; format: in vivo, human; conditions: Study GPEC
PSA levels [3] = experiment: PSA in ED patients failing tadalafil (Study GPEC); format: in vivo, human; conditions: for PSA levels: ED patients, alone or with tadalafil, PSA about 2.0 ng/ml or more
Excerpt: The results of this study are illustrated in FIG. 7. […] (see FIG. 8 and FIG. 9).

[4] = Clinical body composition and muscle power; format: in vivo, human
Excerpt: The Phase 2 Study for ED also included exploratory measures for lower extremity muscle strength and power, LBM and fat mass. […] The results are illustrated in FIGS. 12, 13, and 14.

PSA levels [5] = conditions: healthy volunteers, any time point or dose, data of WO 2016040234; cited from earlier work
[6] = Study GPEC, 12 weeks, 5 mg + 5 mg tadalafil compared with 10 mg tadalafil

In the case of `CC(C)OC(=O)N[C@H]1Cc2c(n(Cc3ccccn3)c3ccc(C#N)cc23)C1` [compound of Formula II, (S)-(7-cyano-4-pyridin-2-ylmethyl-1,2,3,4-tetrahydro-cyclopenta[b]indol-2-yl)-carbamic acid isopropyl ester], the “binding affinity for hAR compared to other nuclear hormone receptors” value [1] is reported as greater than 500 fold, the bioavailability (Rat bioavailability; in vivo, read-out: Rat F %) is reported as 63% and the “Rat F %” value (Rat bioavailability; listed as TT701) is reported as 63%. For the same compound, the bioavailability (Dog bioavailability; in vivo, read-out: Dog F %) was 58%, the “Dog F %” value (Dog bioavailability; listed as TT701) was 58% and the EC50 (LnCAP cells) was 1.64 nM. For the same compound, the “Prostate weight (mean % decrease)” value (rats; 1+ months, 15 mg/kg/day) was ““””, the “Prostate weight (mean % decrease)” value (rats; 1+ months, 150 mg/kg/day) was ““”” and the “Prostate weight (mean % decrease)” value (rats; 1+ months, 1500 mg/kg/day) was ““””. The “Prostate weight (mean % decrease)” value (rats; 6+ months, 15 mg/kg/day) was ““””, the “Prostate weight (mean % decrease)” value (rats; 6+ months, 150 mg/kg/day) was “^↓30%” and the “Prostate weight (mean % decrease)” value (rats; 6+ months, 1500 mg/kg/day) was “^↓34%”. The “Prostate weight (mean % decrease)” value (rats; Male Fertility (3 months), 3 mg/kg/day) was ““””, the “Prostate weight (mean % decrease)” value (rats; Male Fertility (3 months), 30 mg/kg/day) was “^↓23%” and the “Prostate weight (mean % decrease)” value (rats; Male Fertility (3 months), 1000 mg/kg/day) was “^↓39%”. For the same compound, the ECG data [2] was “did not show evidence of clinically meaningful changes”, the PSA levels (PSA levels [3]; listed as OPK88004) was “significant reduction in PSA levels” and the PSA levels (PSA levels [3]; listed as OPK-88004) was “decrease in PSA levels”. For the same compound, the PSA (PSA levels [3]; Study GPEC, 1 mg and 5 mg for 12 weeks) was “not associated with increases in PSA”, the “LBM and calf area (by CT)” value ([4]; Study GPBC, healthy subjects, 28 days) was “clinically and statistically significant increases” and the “fat body mass and LBM” value [4, 6] was “reduction of fat body mass and an increase (improvement) of LBM”. For the same compound, the “lower extremity muscle power (stair climb)” value [4, 6] was “increased (improved)”, the lean body mass ([4]; clinical studies in patients with androgen deficiency) was “clinically and statistically significant increases” and the “PSA levels, change from baseline vs placebo” value (PSA levels [5]) was “no significant changes from baseline”.
